# US8492341B2, “Amyloid-β binding peptides” (Alzyme Pty Ltd., priority 2006, dated 2013)
# Columns and labels:
# [1] = tested on: PS/APP transgenic mice; experiment: Efficacy study: i.c.v. infusion in PS/APP transgenic mice, Aβ and GFAP immunohistochemistry; assay type: in vivo; conditions: 6-month-old PS/APP mice, 28 days, vs Vehicle (PBS)
# Text: Peptide analogue MP2 [Ac-Asn-Arg-Thr-Pro-Gln-Met-Leu-Lys-Arg-NH2 (SEQ ID NO:2)] was delivered directly into the brain by i.c.v administration. For i.c.v infusion into the cerebrospinal fluid, a cannula is inserted into the right lateral ventricle of the brain (antero-posterior: −0.3 mm; medium-line: −1 mm; dorso-ventral: −2.2 mm) of 3-month and 6-month old PS/APP transgenic mice using a Kopf (Tujunga, Calif.) stereotaxic instrument (Permanne et al., 2002 “Reduction of amyloid load and cerebral damage in a transgenic mouse model of Alzheimer's disease by treatment with a β-sheet breaker peptide” FASEB J.).
# The coordinates are measured from the Bregma and the surface of the skull according to the brain atlas of Franklin and Paxinos (The Mouse Brain in Stereotaxic Coordinates (1997) Academic Press, San Diego). […]
# For immunohistochemistry, tissue sections are cut and series of sections processed for peroxidase immunohistochemistry with antibodies specific for beta amyloid (1-42) and astrocytic activation (GFAP). […] Reactive astrocytes (forming a halo around Aβ deposits) were detected using antibody GFAP (1:500 dilution in DAKO antibody diluent; polyclonal, DAKO); Aβ detected using affinity purified WO2 antibody (1:10,000 dilution in Tris buffer (pH 7.6); raised against amino acid residues 5-8 of human Aβ, monoclonal). […]
# [2] = target: human Aβ1-42 (Homo sapiens, UniProt P05067); experiment: DCF fluorescence assay of H2O2 production (SOD-like activity) by human Aβ1-42; assay type: biochemical; conditions: P<0.001
# human Aβ1-42, sequence (P05067 672-713): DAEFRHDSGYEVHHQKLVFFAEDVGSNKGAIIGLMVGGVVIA
# Experimental: The three candidate peptides (15merTNP, 6merPLP and 6merMTM) were examined to determine whether they could attenuate Aβ's SOD-like activity in vitro. A DCF fluorescence assay was used to assess the efficacy of these peptides on altering the production of physiological (brain) concentrations (200 nM) of human Aβ1-42.
# Aβ species were prepared and the assay run as described previously (i.e. Aβ1-42 at 200 nM and Copper and Dopamine concentrations remain unchanged). Peptide analogue MP2 (SEQ ID NO:2) was added to Aβ1-42+Cu solutions at ratios ranging from 0.005:1 to 10.0:1 (i.e. a ration of 0.005:1 would contain 1 nM of respective peptide). The peptide was dissolved in PBS pH7.5. The effect of MP2 on H2O2 production by human Aβ1-42 was determined in triplicate in three separate experiments (i.e. n=9) for doses ranging from 100 to 2000 nM (FIG. 1). These were compared against the level of H2O2 produced by human Aβ1-42 [test peptide analogue MP2+positive control peptide 15merTNP; three experiments done in triplicate, […]]. All data are presented as means±SEM.
# For all assays run, the 15merTNP peptide (SEQ ID NO: 3), was included as a positive control for the assay and for comparing its activity with that of the modelled peptide analogue MP2. The effect of 15merTNP (200 nM) on H2O2 production by human Aβ1-42, was determined in triplicate in each of the 12 DCF assays (i.e. n=36) performed in this study.
# [3] = In vitro peptide stability in 10% rodent brain homogenate; assay type: in vitro ADME, rat
# Experimental: For the peptide stability assay in vitro, both 15merTNP and peptide analogue MP2 were incubated separately with fresh 10% rodent brain homogenate to model degradation in tissues. In order to create a physiological dose of peptide in the in vitro assay, both radioactive (^3H-labelled; hot) and non-radioactive (cold) peptides were combined in a set ratio. Cold peptide was added at a dose of […] per ml of 10% brain homogenate. Hot peptide was added at a dose of 250 μCi per ml 10% brain homogenate. Following the addition of hot and cold peptide; the homogenate was vortexed and incubated for different time points. The reaction was stopped by adding complete protease inhibitor cocktail and the samples analysed.
# The biological stability of the peptides was evaluated by incubating them (90 nmol) in fresh 10% rodent brain homogenate for different times at 37° C. The amount of intact peptide was estimated by running the supernatant of the homogenate on a 16% Tricine gel to separate peptide that had not had its amino acid sequence degraded. FIG. 3 illustrates the relative stability of 15merTNP and peptide analogue MP2 over two hours run on a 16% Tricine gel from time 0-120 min with samples run in duplicate. The values correspond to the in vitro half-life, which is defined as the time needed for 50% degradation of the peptide.
# [4] = tested on: human Aβ42; experiment: MTS cell viability assay of MP2 analogues, cells treated with human Aβ42 (20 μM); assay type: cell-based; conditions: peptide 80-400 μM
# Experimental: FIG. 7 illustrates the effect of various peptide analogues of the peptide analogue of SEQ ID NO:2 on cell viability associated with human Aβ1-42. Cells were treated with human Aβ42 peptide (20 μM) in the absence or presence of increasing doses of MP2, MP4, MP5 or MP6 (n=6, for each peptide). Cell viability was assessed by the MTS assay.
# Cells were treated with human Aβ42 peptide (20 μM) in the absence or presence of increasing doses of MP2, MP4, MP5 or MP6 (n=6, for each peptide). Cell viability was assessed by the MTS assay.
# [5] = target: Aβ (Homo sapiens, UniProt P05067); experiment: Copper-induced Aβ oligomer generation (SDS-PAGE, WO2 immunoblot); assay type: biochemical; conditions: Aβ 5 uM, Cu+2 25 μM, 0-1000 μM peptide, 37 C, 24 hours; vs reverse peptide control
# Aβ, sequence (P05067 672-713 limits assumed): as the sequence (P05067 672-713) above
# Experimental: Incubation of Aβ with copper generates cross-linked oligomeric species (Atwood et al., 2000: Cell Mol Biol, 46: 777-783; Atwood et al., 2004: Biochemistry, 43: 560-568). In this experiment, Aβ (5 uM) is incubated with Cu+2 (25 μM) and 0-1000 μM of the modified peptides at 37 C for 24 hours. After the incubation period, 20 ng is loaded onto an SDS-PAGE gel and immunoblotted with WO2 antibody. Compared to the reverse peptide control, all the modified peptides inhibited the generation of Aβ oligomers at various concentration.
substance,measurement,setting,value
"Ac-NRTPQMLKR-NH2 [MP2, Ac-Asn-Arg-Thr-Pro-Gln-Met-Leu-Lys-Arg-NH2]",reduction in the estimated total number of Aβ immunoreactive deposits,[1]; 60 nmoles daily i.c.v.,26.4%
same,total number of GFAP immunoreactive halos,[1]; 60 nmoles/day i.c.v.,"reduction in the total number of GFAP immunoreactive halos, although significance was only reached in the middle and posterior cortical regions"
same,H2O2 levels produced by human Aβ1-42,[2]; 100 and 200 nM peptide,significant reduction
same,H2O2 levels produced by human Aβ1-42,[2]; peptide doses ≧1000 nM,significantly increased
same,Stability in rat brain homogenate (in vitro half-life),"[3]; 10% brain homogenate, 37° C., listed as Peptide analogue MP2",>24 h
same,stability relative to 15merTNP,"[3]; 10% rodent brain homogenate, 24 hour time period",significantly more stable
same,half-life at 2.5 mmol per ml,"[3]; rat, fresh 10% brain homogenate, 10% brain homogenate, 37° C.",> 24 h
same,cell viability following treatment with human Aβ42,[4],significantly increased
same,inhibition of Aβ oligomer formation,[5],most potent
